In article PMC7011792 (Journal of Enzyme Inhibition and Medicinal Chemistry, 2017):

Columns and labels:
huAChE = target: T1, huAChE (Homo sapiens, UniProt P22303); assay: Kinetic study of huAChE inhibition (Lineweaver-Burk, Michaelis-Menten); assay type: biochemical; conditions: Lineweaver–Burk plots, 1, 2, 4, 10 nM
T1 construct: purchased Sigma-Aldrich C1682
Protocol: Kinetic studies were performed according to methods reported previously. The concentrations of the substrate ATC or BTC were prepared as 25, 50, 90, 150, 226, and 452 µM. Different concentrations of compound 19 with 0, 1, 2, 4, 10 nM, were also prepared by stock solution. For measurement, the enzymatic reaction was extended to 20 min (huAChE and huBuChE) before the determination of the absorption. Graph Pad Prism 5 was applied for data processing. Vmax and Km values of the Michaelis–Menten kinetics were determined by nonlinear regression from substrate-velocity curves, while Lineweaver–Burk plots were fitted by using linear regression method.

[1] = target: T2, AChE (EC 3.1.1.7) from electric eel (Electrophorus electricus, UniProt O42275); assay: biochemical
T2 construct: purchased Sigma-Aldrich C3389
Protocol: (§1) AChE (EC 3.1.1.7, Type VI-S, from electric eel, C3389; from human, C1682) and BuChE (EC 3.1.1.8, from equine serum, C0663; from human, B4186), 5,5'-dithiobis (2-nitrobenzoic acid) (DTNB, D218200), acetylthiocholine iodide (ATC, A5751), and butyrylthiocholine iodide (BTC, B3253) were obtained from Sigma-Aldrich (St. Louis, MO).
(§2) The inhibitory effects of the synthesised compounds in this paper were evaluated according to our previously reported method. […] ATC/BTC iodide solution (0.075 M) was prepared in deionised water. […] The assay buffer was prepared as follows: potassium dihydrogen phosphate (1.36 g, 10 mmol) was dissolved in 100 ml of water. The pH of the solution was then adjusted to 8.0 ± 0.1 with KOH. Stock solutions of the test samples were dissolved in ethanol to give a final concentration of 10^−4 M when diluted to the final volume of 3.32 ml. For each compound, a dilution series of at least five different concentrations (normally 10^−5–10^−9 M) were prepared.
(§3) For measurement, a cuvette containing 3.0 ml of phosphate buffer, 100 µL of AChE or BuChE, 100 µL of DTNB, and 100 µL of the test compound solution were added in sequence. The reaction was initiated after adding 20 µL of ATC or BTC, and the solution was mixed immediately. […] For the reference value, 100 µL of water replaced the test compound solution. For the blank control, additionally 100 µL of water replaced the enzyme solution. The measurement for each concentration was assayed in triplicate. GraphPad Prism 5 was used for data processing. The inhibition curve was fitted by plotting percentage enzyme activity (100% for the reference) versus logarithm of test compound concentration. The IC50 values were calculated according to the curve, and the data were shown in mean ± SEM.
(§4) The inhibitory effects on ChEs of all the target compounds were determined according to Ellman’s method. AChE from electrophorus electricus (eeAChE) and BuChE from equine serum (eqBuChE) were used in the assays.

[2] = target: T3, BuChE (EC 3.1.1.8) from horse serum (Equus caballus, UniProt P81908); assay: biochemical; assay type: biochemical; conditions: BuChE from horse serum; mean ± SEM of three experiments
T3 construct: purchased Sigma-Aldrich C0663; host or cells: equine serum
Protocol: as §1, §2, §3, §4

T2 sequence (O42275 24-633): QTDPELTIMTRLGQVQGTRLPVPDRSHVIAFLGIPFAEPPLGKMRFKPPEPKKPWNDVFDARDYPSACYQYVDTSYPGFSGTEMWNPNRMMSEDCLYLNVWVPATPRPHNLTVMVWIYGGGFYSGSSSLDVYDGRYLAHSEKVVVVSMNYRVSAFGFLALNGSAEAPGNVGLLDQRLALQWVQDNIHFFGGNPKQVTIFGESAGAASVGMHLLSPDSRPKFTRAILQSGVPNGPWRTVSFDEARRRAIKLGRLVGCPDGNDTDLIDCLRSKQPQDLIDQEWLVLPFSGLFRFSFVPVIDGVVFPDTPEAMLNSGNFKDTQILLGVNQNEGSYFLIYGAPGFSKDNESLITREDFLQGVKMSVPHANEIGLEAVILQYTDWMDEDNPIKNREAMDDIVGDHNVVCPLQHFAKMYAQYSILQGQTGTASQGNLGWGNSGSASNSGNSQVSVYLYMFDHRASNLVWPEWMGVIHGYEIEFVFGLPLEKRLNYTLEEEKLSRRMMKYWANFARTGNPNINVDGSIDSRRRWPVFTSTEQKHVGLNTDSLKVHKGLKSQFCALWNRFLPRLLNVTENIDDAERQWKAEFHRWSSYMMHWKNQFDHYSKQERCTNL
T3 sequence (P81908 whole entry): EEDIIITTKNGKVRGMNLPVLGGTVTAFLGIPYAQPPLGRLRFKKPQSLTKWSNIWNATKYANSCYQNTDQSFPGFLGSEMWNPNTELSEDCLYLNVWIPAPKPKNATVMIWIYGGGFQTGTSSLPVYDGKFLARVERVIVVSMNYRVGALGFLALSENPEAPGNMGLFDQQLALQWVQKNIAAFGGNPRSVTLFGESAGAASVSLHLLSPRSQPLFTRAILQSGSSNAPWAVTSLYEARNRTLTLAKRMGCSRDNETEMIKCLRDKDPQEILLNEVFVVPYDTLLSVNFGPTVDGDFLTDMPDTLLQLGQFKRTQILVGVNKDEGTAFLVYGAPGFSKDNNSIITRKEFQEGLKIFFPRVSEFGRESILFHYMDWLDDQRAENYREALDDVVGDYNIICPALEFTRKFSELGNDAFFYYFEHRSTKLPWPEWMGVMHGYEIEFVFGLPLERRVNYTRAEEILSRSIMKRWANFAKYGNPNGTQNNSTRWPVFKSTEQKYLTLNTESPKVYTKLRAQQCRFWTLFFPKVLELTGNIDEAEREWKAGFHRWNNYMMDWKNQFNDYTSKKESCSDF
T1 sequence (P22303 32-614): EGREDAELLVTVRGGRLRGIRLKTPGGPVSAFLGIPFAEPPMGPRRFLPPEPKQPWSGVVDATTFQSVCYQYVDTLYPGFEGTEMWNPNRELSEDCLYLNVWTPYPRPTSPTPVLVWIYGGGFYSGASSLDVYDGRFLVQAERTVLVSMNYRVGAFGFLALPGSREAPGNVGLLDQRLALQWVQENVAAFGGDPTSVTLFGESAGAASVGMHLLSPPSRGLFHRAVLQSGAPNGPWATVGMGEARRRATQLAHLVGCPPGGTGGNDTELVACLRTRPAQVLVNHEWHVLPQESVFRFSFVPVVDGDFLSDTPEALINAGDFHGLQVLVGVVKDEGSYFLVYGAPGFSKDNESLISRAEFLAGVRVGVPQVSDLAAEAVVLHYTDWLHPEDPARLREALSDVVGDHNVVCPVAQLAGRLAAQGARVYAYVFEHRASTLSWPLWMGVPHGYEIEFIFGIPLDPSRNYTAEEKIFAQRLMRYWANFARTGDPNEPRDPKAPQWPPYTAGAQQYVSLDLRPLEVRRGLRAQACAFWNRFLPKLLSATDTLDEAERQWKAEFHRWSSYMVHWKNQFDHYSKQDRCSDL

Compound: O=C(/C=C/c1ccc([N+](=O)[O-])cc1)NCCCCCCNc1c2c(nc3ccccc13)CCCC2 [Compound 19, (E)-3-(4-nitrophenyl)-N-(6-((1,2,3,4-tetrahydroacridin-9-yl)amino)hexyl)acrylamide]
- type of inhibition on huAChE (huAChE): noncompetitive
- IC50 ([1]; AChE from electric eel, mean ± SEM of three experiments): 2.7 ± 0.4 nM
- Selectivity index (SI) = BuChE IC50/AChE IC50 ([1]; eqBuChE IC50 / eeAChE IC50): 2.4
- IC50 [2]: 6.5 ± 0.6 nM
